# Measured values taken from PMC7316778 (Nature Communications, 2020).
# pIC50: −log10 of the molar value. Values joined by “and” are separate entries in the source; they are usually repeats but may differ in a detail not shown here. Equal entries are not always repeated. Where two headings read alike, the source gives them in different places.
# Assays:
# Test in all cases: SelectScreen kinase assay
# PRKCD (PKC delta) = PRKCD (PKC delta) (Homo sapiens, UniProt Q05655); details: 1 h, 1 μM WEL028, 1 h preincubation
# Method: (§1) Selectivity profiling assays were performed by the Invitrogen SelectScreen™ Services. […] The concentration of ATP was selected to be equal to the KM, unless indicated otherwise.
# STK24 (MST3) = STK24 (MST3) (Homo sapiens, UniProt Q9Y6E0)
# STK24 (MST3), sequence (Q9Y6E0 whole entry): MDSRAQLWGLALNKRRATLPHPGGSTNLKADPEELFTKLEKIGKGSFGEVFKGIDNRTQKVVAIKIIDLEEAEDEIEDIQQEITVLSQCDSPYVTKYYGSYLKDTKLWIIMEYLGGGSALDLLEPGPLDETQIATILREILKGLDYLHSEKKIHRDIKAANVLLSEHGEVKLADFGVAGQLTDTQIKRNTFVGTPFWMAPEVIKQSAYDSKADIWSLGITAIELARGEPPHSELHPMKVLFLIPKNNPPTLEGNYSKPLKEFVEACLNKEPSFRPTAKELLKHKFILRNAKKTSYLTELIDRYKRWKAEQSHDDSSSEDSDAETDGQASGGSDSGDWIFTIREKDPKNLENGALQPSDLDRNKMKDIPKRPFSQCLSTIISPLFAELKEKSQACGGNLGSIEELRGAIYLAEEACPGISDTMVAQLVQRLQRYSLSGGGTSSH
# Method: as §1
# STK4 (MST1) = STK4 (MST1) (Homo sapiens, UniProt Q13043)
# Method: as §1
# CAMK4 (CaMKIV) = CAMK4 (CaMKIV) (Homo sapiens, UniProt Q16566)
# Method: as §1
# HCK = HCK (Homo sapiens, UniProt P08631)
# HCK, sequence (P08631 whole entry): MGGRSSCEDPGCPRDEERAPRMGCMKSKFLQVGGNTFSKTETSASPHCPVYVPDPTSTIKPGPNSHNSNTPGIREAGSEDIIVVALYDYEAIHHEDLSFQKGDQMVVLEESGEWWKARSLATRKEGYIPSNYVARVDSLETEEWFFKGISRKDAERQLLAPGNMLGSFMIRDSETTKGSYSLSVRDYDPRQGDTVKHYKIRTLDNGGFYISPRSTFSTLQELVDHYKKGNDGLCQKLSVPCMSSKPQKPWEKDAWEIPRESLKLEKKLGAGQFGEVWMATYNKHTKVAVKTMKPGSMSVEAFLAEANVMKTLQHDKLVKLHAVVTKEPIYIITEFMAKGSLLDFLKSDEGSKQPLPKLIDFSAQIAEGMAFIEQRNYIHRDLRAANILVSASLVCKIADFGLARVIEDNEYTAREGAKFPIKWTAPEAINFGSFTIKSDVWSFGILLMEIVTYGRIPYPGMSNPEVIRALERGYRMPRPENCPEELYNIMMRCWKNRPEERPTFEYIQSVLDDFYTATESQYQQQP
# Method: as §1
# NEK6 = NEK6 (Homo sapiens, UniProt Q9HC98); details: for Inhibition at 1 µM (%): NEK6, ZLYTE, ATP Km app
# NEK6, sequence (Q9HC98 whole entry): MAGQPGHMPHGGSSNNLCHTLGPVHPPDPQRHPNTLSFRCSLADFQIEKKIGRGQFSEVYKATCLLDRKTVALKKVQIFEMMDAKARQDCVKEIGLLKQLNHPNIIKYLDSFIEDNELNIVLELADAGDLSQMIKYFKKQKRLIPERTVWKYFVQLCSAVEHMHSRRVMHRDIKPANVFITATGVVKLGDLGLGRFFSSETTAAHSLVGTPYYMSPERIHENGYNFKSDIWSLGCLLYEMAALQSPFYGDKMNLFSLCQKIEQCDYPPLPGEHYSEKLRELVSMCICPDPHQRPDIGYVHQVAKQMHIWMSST
# Method: as §1
# EPHA2 = EPHA2 (Homo sapiens, UniProt P29317)
# Method: as §1
# MAP3K8 (COT) [1] = target: MAP3K8 (COT) (Homo sapiens, UniProt P41279)
# MAP3K8 (COT) (Homo sapiens, UniProt P41279), sequence (P41279 whole entry, species assumed): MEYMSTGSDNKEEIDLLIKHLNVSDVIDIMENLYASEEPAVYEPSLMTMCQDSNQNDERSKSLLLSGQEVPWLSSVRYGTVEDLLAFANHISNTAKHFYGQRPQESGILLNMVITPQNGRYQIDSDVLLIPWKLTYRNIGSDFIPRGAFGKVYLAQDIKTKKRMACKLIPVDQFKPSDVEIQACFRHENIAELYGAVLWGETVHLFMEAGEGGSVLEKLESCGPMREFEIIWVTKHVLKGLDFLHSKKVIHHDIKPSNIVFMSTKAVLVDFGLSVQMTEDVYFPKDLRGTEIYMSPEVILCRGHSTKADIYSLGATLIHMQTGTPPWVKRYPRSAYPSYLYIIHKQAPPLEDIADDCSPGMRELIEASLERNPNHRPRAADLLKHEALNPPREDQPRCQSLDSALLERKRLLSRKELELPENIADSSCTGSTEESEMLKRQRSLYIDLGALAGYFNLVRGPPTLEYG
# Method: as §1
# MAP3K8 (COT) [2] = details: IC50 on that kinase divided by IC50 on FES^S700C
# Method: as §1
# ERN2 = ERN2 (Homo sapiens, UniProt Q76MJ5)
# Method: as §1
# CHEK1 (CHK1) = CHEK1 (CHK1) (Homo sapiens, UniProt O14757); details: 1 μM WEL028, 1 h preincubation
# Method: as §1
# PIP5K1B = PIP5K1B (Homo sapiens, UniProt O14986); details: for Inhibition at 1 µM (%): PIP5K1B, Adapta, ATP 10
# Method: as §1
# STK38L (NDR2) = STK38L (NDR2) (Homo sapiens, UniProt Q9Y2H1); details: for Inhibition at 1 µM (%): LanthaScreen Binding
# STK38L (NDR2), sequence (Q9Y2H1 whole entry): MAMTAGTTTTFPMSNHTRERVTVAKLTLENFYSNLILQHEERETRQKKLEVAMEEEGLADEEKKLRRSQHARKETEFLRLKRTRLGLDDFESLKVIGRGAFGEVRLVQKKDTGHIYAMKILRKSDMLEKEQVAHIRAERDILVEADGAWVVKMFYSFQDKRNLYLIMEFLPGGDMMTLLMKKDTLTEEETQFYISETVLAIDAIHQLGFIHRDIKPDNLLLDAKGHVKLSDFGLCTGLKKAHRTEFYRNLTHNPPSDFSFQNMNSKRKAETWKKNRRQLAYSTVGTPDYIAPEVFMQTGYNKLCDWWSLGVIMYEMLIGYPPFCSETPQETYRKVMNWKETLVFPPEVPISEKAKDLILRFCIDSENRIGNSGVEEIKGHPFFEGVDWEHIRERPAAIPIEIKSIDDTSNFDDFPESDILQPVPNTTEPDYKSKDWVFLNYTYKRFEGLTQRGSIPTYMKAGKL
# Method: as §1
# MKNK1 (MNK1) = MKNK1 (MNK1) (Homo sapiens, UniProt Q9BUB5)
# Method: as §1
# FYN = FYN (Homo sapiens, UniProt P06241)
# FYN, sequence (P06241 whole entry): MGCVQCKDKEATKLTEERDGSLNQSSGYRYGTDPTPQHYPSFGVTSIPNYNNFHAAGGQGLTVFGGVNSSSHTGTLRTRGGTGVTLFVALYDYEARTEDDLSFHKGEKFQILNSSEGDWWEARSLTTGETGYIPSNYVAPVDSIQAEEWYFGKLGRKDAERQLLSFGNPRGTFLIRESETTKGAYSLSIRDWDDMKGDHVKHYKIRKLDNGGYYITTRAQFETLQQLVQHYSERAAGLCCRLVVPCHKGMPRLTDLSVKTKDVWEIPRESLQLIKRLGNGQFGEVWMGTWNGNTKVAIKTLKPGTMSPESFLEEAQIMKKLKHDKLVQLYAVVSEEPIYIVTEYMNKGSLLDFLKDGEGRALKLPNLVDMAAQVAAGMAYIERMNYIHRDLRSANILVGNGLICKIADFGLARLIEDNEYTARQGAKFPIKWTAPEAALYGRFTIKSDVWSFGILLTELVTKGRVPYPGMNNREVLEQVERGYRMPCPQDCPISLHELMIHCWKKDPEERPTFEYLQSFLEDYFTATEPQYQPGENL
# Method: as §1
# BMPR1A (ALK3) = BMPR1A (ALK3) (Homo sapiens, UniProt P36894); details: for Inhibition at 1 µM (%): BMPR1A (ALK3), LanthaScreen Binding
# BMPR1A (ALK3), sequence (P36894 24-532): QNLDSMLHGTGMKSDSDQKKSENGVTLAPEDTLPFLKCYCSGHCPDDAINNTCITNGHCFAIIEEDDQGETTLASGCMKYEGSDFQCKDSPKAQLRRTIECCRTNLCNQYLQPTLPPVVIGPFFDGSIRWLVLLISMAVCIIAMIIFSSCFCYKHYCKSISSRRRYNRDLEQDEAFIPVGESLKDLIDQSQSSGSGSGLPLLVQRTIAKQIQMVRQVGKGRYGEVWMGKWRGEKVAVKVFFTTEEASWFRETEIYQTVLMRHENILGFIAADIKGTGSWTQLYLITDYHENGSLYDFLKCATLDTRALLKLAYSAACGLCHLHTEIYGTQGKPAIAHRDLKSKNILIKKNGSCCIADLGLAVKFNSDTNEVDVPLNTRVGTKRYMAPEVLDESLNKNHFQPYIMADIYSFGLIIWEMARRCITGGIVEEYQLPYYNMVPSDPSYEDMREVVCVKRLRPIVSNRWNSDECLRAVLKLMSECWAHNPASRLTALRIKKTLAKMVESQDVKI
# Method: as §1
# EPHA1 = EPHA1 (Homo sapiens, UniProt P21709)
# Method: as §1
# DAPK1 = DAPK1 (Homo sapiens, UniProt P53355)
# DAPK1, sequence (P53355 whole entry): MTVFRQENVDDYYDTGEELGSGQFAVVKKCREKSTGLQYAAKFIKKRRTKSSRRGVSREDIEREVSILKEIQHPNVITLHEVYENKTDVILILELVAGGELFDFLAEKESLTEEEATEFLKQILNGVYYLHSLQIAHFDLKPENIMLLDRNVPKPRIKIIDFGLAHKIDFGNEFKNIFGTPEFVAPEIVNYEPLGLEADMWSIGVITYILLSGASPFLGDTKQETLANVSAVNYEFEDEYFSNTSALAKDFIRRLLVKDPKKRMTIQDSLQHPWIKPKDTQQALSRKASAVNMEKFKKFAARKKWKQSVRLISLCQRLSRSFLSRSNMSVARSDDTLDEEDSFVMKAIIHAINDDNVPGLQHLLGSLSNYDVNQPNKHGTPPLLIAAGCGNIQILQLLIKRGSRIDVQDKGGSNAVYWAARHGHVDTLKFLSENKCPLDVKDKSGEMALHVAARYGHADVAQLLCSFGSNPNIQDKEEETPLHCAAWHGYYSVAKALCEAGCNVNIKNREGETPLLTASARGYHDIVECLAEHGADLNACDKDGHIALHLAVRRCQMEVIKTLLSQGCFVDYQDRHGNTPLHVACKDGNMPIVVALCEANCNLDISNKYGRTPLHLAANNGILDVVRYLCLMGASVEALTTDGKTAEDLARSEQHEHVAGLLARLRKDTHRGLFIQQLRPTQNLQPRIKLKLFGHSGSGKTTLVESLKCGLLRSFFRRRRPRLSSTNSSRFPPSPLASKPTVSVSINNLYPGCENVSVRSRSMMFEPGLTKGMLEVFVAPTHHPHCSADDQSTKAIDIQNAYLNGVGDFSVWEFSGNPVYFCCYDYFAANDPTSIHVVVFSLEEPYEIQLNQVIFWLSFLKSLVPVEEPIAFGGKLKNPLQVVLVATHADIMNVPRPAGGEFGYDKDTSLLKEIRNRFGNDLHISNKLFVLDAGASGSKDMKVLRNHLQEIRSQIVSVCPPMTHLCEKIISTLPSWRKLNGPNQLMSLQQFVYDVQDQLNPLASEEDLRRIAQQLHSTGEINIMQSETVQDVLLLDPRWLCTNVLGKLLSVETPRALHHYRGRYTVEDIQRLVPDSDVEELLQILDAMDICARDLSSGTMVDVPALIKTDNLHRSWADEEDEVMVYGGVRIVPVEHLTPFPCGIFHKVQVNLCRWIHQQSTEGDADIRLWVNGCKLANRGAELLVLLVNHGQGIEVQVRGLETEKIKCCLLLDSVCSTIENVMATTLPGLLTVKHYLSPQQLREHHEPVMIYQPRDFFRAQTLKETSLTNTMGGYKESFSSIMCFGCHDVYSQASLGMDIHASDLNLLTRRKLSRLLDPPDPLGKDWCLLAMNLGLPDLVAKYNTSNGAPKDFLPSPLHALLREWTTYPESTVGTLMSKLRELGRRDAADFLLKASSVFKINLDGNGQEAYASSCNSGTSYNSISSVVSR
# Method: as §1
# PKN1 (PRK1) = PKN1 (PRK1) (Homo sapiens, UniProt Q16512)
# Method: as §1
# RPS6KA2 (RSK3) = RPS6KA2 (RSK3) (Homo sapiens, UniProt Q15349); details: 1 h, 1 μM WEL028, 1 h preincubation
# Method: as §1
# TNK2 (ACK) [3] = target: TNK2 (ACK) (Homo sapiens, UniProt Q07912)
# TNK2 (ACK) [4] = details: IC50 on that kinase divided by IC50 on FES^S700C
# [5] = 1 h, 1 μM WEL028, 1 h preincubation
# [6] = read-out: Inhibition at 1 µM (%)
smiles,measurement,setting,value
C#CCOc1ccc(Nc2ncc(Cl)c(Nc3ccccc3NC(=O)C=C)n2)c(OC)c1 [Compound 6],inhibition at 1 µM,PRKCD (PKC delta),14%
same,Inhibition (%),"STK24 (MST3); 1 μM WEL028, 1 h preincubation",12%
same,Inhibition at 1 µM (%),"STK24 (MST3); 1 µM, ZLYTE, ATP Km app, listed as WEL028, 1 µM",15%
same,inhibition at 1 µM,"STK24 (MST3); read-out: Inhibition at 1 µM (%), 1 µM, ZLYTE, ATP Km app",9%
same,Inhibition (%),"STK4 (MST1); 1 μM WEL028, 1 h preincubation",3%
same,Inhibition at 1 µM (%),"STK4 (MST1); 1 µM, ZLYTE, ATP Km app",11%
same,inhibition at 1 µM,CAMK4 (CaMKIV); [5],-5%
same,Inhibition at 1 µM (%),"CAMK4 (CaMKIV); CAMK4 (CaMKIV), 1 µM, ZLYTE, ATP Km app",-15%
same,inhibition at 1 µM,HCK; [5],6%
same,Inhibition at 1 µM (%),"HCK; HCK, 1 µM, ZLYTE, ATP Km app, listed as WEL028, 1 µM",7%
same,inhibition at 1 µM,"HCK; read-out: Inhibition at 1 µM (%), HCK, 1 µM, ZLYTE, ATP Km app",4%
same,inhibition at 1 µM,NEK6; [5],9%
same,Inhibition at 1 µM (%),NEK6,13%
same,Inhibition at 1 µM (%),"NEK6; listed as WEL028, 1 µM",5%
same,inhibition at 1 µM,EPHA2; [5],7%
same,Inhibition at 1 µM (%),"EPHA2; EPHA2, 1 µM, ZLYTE, ATP Km app",13%
same,pIC50,MAP3K8 (COT) [1],6.60
same,inhibition at 1 µM,MAP3K8 (COT) [1]; [5],77%
same,inhibition at 10 µM,"MAP3K8 (COT) [1]; 1 h, log[inhibitor] (M) -5.00, ZLYTE, ATP 100",100%
same,inhibition at 3.311 µM,"MAP3K8 (COT) [1]; 1 h, log[inhibitor] (M) -5.48, ZLYTE, ATP 100",101%
same,inhibition at 1.122 µM,"MAP3K8 (COT) [1]; 1 h, log[inhibitor] (M) -5.95, ZLYTE, ATP 100",95%
same,inhibition at 0.3715 µM,"MAP3K8 (COT) [1]; 1 h, log[inhibitor] (M) -6.43, ZLYTE, ATP 100",67%
same,inhibition at 0.123 µM,"MAP3K8 (COT) [1]; 1 h, log[inhibitor] (M) -6.91, ZLYTE, ATP 100",46%
same,inhibition at 0.04074 µM,"MAP3K8 (COT) [1]; 1 h, log[inhibitor] (M) -7.39, ZLYTE, ATP 100",34%
same,inhibition at 0.0138 µM,"MAP3K8 (COT) [1]; 1 h, log[inhibitor] (M) -7.86, ZLYTE, ATP 100",24%
same,inhibition at 0.001514 µM,"MAP3K8 (COT) [1]; 1 h, log[inhibitor] (M) -8.82, ZLYTE, ATP 100",15%
same,inhibition at 0.0004898 µM,"MAP3K8 (COT) [1]; 1 h, log[inhibitor] (M) -9.31, ZLYTE, ATP 100",17%
same,inhibition at 0.004571 µM,"MAP3K8 (COT) [1]; 1 h, log[inhibitor] (M) -[…], ZLYTE, ATP 100",17%
same,Inhibition at 1 µM (%),"MAP3K8 (COT) [1]; MAP3K8 (COT), 1 µM, ZLYTE, ATP 100, listed as WEL028, 1 µM",82%
same,inhibition at 1 µM,"MAP3K8 (COT) [1]; read-out: Inhibition at 1 µM (%), MAP3K8 (COT), 1 µM, ZLYTE, ATP 100",73%
same,Apparent fold selectivity,MAP3K8 (COT) [2],57 fold
same,inhibition at 1 µM,ERN2; 1 h,-1%
same,inhibition at 1 µM,ERN2; [6],-1%
same,Inhibition (%),CHEK1 (CHK1),0%
same,inhibition at 1 µM,PIP5K1B; [5],-11%
same,Inhibition at 1 µM (%),PIP5K1B,-13%
same,Inhibition at 1 µM (%),"PIP5K1B; listed as WEL028, 1 µM",-9%
same,Inhibition at 1 µM (%),STK38L (NDR2),2%
same,Inhibition at 1 µM (%),"STK38L (NDR2); listed as WEL028, 1 µM",7%
same,inhibition at 1 µM,STK38L (NDR2); [5],5%
same,inhibition at 1 µM,MKNK1 (MNK1); [5],13%
same,Inhibition at 1 µM (%),"MKNK1 (MNK1); MKNK1 (MNK1), 1 µM, ZLYTE, ATP Km app",21%
same,inhibition at 1 µM,FYN; [5],4%
same,Inhibition at 1 µM (%),"FYN; FYN, 1 µM, ZLYTE, ATP Km app, listed as WEL028, 1 µM",0% and 8%
same,inhibition at 1 µM,BMPR1A (ALK3); [5],-2%
same,Inhibition at 1 µM (%),BMPR1A (ALK3),2%
same,Inhibition at 1 µM (%),"BMPR1A (ALK3); listed as WEL028, 1 µM",-6%
same,inhibition at 1 µM,EPHA1; 1 h,5%
same,inhibition at 1 µM,EPHA1; [6],5%
same,inhibition at 1 µM,DAPK1; [5],12%
same,Inhibition at 1 µM (%),"DAPK1; DAPK1, 1 µM, Adapta, ATP Km app, listed as WEL028, 1 µM",13%
same,inhibition at 1 µM,"DAPK1; read-out: Inhibition at 1 µM (%), DAPK1, 1 µM, Adapta, ATP Km app",12%
same,inhibition at 1 µM,PKN1 (PRK1); [5],7%
same,Inhibition at 1 µM (%),"PKN1 (PRK1); PKN1 (PRK1), 1 µM, ZLYTE, ATP Km app, listed as WEL028, 1 µM",5%
same,inhibition at 1 µM,"PKN1 (PRK1); read-out: Inhibition at 1 µM (%), PKN1 (PRK1), 1 µM, ZLYTE, ATP Km app",8%
same,inhibition at 1 µM,RPS6KA2 (RSK3),19%
same,pIC50,TNK2 (ACK) [3],6.50
same,Inhibition at 1 µM (%),"TNK2 (ACK) [3]; 1 µM, LanthaScreen Binding, listed as WEL028, 1 µM",72%
same,inhibition at 1 µM,TNK2 (ACK) [3]; [5],73%
same,inhibition at 10 µM,"TNK2 (ACK) [3]; 1 h, log[inhibitor] (M) -5.00, LanthaScreen Binding",46%
same,inhibition at 3.311 µM,"TNK2 (ACK) [3]; 1 h, log[inhibitor] (M) -5.48, LanthaScreen Binding",70%
same,inhibition at 1.122 µM,"TNK2 (ACK) [3]; 1 h, log[inhibitor] (M) -5.95, LanthaScreen Binding",77%
same,inhibition at 0.3715 µM,"TNK2 (ACK) [3]; 1 h, log[inhibitor] (M) -6.43, LanthaScreen Binding",48%
same,inhibition at 0.123 µM,"TNK2 (ACK) [3]; 1 h, log[inhibitor] (M) -6.91, LanthaScreen Binding",25%
same,inhibition at 0.04074 µM,"TNK2 (ACK) [3]; 1 h, log[inhibitor] (M) -7.39, LanthaScreen Binding",5%
same,inhibition at 1 µM,"TNK2 (ACK) [3]; read-out: Inhibition at 1 µM (%), 1 µM, LanthaScreen Binding",74%
same,Apparent fold selectivity,TNK2 (ACK) [4],76 fold
